Measurements as given in patent publication US12692261B2, “Substituted heterocyclic compounds and therapeutic uses thereof” (Bayer Aktiengesellschaft, priority 2020, dated 2026).
Where “and” joins values, the source holds several entries; their conditions need not be identical. Identical values can stand only once.

How the values were obtained:
full-length human CSNK1D = target: T1, full-length human CSNK1D (Homo sapiens, UniProt P48730); assay: CSNK1D Assay (ADP-Glo, 1 μM ATP); format: biochemical; settings: Table 3, read-out: CSNK1D IC50 [mol/l] (median)
T1 construct: N-terminal Glutathion-S-Transferase (GST) and full-length human CSNK1D; purchased Life Technologies PV3665; host or cells: baculovirus infected insect cells
T1 sequence (P48730 whole entry): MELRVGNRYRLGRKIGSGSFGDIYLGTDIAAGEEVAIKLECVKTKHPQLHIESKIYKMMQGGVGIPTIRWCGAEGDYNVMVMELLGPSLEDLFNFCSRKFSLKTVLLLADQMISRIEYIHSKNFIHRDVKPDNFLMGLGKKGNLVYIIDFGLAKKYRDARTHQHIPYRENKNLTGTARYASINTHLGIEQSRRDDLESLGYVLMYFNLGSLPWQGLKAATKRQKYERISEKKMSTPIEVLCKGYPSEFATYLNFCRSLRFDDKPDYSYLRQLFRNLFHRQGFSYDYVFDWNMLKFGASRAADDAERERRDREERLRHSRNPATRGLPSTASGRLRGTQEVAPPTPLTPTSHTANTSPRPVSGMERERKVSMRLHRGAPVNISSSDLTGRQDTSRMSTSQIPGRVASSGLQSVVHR
Summary of the method: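 ADP-Glo luminescence reports ADP generated by GST-fused full-length human CSNK1D (insect-cell expressed, about 0.5 ng/μL) acting on a biotinylated peptide at 1 μM ATP. Test compounds were pre-bound to enzyme 15 min at 22° C in 50 mM HEPES pH 7.5.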

[1] = target: T2, full-length human CSNK1A1 (Homo sapiens, UniProt P48729); assay: CSNK1A1 High ATP Assay (ADP-Glo, 1 mM ATP); format: biochemical; settings: Table 3, read-out: CSNK1A1 high ATP assay IC50 [mol/l] (median);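 further: 30 min kinase reaction at 22 °C with 100 µM peptide substrate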
T2 construct: N-terminal Glutathion-S-Transferase (GST) and full-length human CSNK1A1; purchased Life Technologies PV4174; host or cells: baculovirus infected insect cells
T2 sequence (P48729 whole entry): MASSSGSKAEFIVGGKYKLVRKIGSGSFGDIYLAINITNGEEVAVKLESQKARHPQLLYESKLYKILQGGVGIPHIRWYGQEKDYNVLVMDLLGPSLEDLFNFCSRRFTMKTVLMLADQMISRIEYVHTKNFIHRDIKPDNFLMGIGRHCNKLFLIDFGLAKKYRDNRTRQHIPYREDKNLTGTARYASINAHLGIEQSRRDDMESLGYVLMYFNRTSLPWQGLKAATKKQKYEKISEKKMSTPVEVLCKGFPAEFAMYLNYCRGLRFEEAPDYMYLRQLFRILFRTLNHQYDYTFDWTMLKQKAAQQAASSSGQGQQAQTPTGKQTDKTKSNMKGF
Summary of the method: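 Kinase activity taken as ADP generated, quantified by ADP-Glo luminescence after 1 h ATP depletion and 1 h detection at 22 °C. Enzyme is GST–full-length human CSNK1A1 (insect cell-expressed), pre-bound to compound for 15 min, with phosphopeptide substrate and 1 mM ATP.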

Row | SMILES | IC50 (full-length human CSNK1D) | IC50 [1]
1 | O=C(Nc1cc(-c2[nH]c3c(OCC(F)(F)F)ncnc3c2-c2ccccn2)ccn1)C(CC(F)F)c1ccc(F)cc1 (single isomer, unassigned) [Example 124, (2R or S)-4,4-difluoro-2-(4-fluorophenyl)-N-{4-[7-(pyridin-2-yl)-4-(2,2,2-trifluoroethoxy)-5H-pyrrolo[3,2-d]pyrimidin-6-yl]pyridin-2-yl}butanamide] | 0.0466 µM | 2.18 µM
2 | O=C(Nc1cc(-c2[nH]c3c(OCC(F)(F)F)ncnc3c2-c2ccccn2)ccn1)C(CC(F)(F)F)c1ccc(F)cc1 (single isomer, unassigned) [Example 126, (2R or S)-4,4,4-trifluoro-2-(4-fluorophenyl)-N-{4-[7-(pyridin-2-yl)-4-(2,2,2-trifluoroethoxy)-5H-pyrrolo[3,2-d]pyrimidin-6-yl]pyridin-2-yl}butanamide] | 0.00784 µM | 0.02 µM
3 | O=C(Nc1cc(-c2[nH]c3c(OCC(F)(F)F)ncnc3c2-c2ccccn2)ccn1)C(CC(F)(F)F)c1ccc(F)cc1 (single isomer, unassigned) [Example 127, (2R or S)-4,4,4-trifluoro-2-(4-fluorophenyl)-N-{4-[7-(pyridin-2-yl)-4-(2,2,2-trifluoroethoxy)-5H-pyrrolo[3,2-d]pyrimidin-6-yl]pyridin-2-yl}butanamide] | 0.0881 µM | > 20 µM
4 | O=C(Nc1cc(-c2[nH]c3c(OCC4CC4)ncnc3c2-c2ccccn2)ccn1)C(CC(F)F)c1ccc(F)cc1 (single isomer, unassigned) [Example 129, (2R or S)—N-{4-[4-(cyclopropylmethoxy)-7-(pyridin-2-yl)-5H-pyrrolo[3,2-d]pyrimidin-6-yl]pyridin-2-yl}-4,4-difluoro-2-(4-fluorophenyl)butanamide] | 0.00594 µM | 0.0103 µM
5 | O=C(Nc1cc(-c2[nH]c3c(OCC4CC4)ncnc3c2-c2ccccn2)ccn1)C(CC(F)F)c1ccc(F)cc1 (single isomer, unassigned) [Example 130, (2R or S)—N-{4-[4-(cyclopropylmethoxy)-7-(pyridin-2-yl)-5H-pyrrolo[3,2-d]pyrimidin-6-yl]pyridin-2-yl}-4,4-difluoro-2-(4-fluorophenyl)butanamide] | 0.0558 µM | 4.96 µM and > 5.71 µM
6 | O=C(Nc1cc(-c2[nH]c3cccnc3c2-c2ccccn2)ccn1)C(CC(F)F)c1ccc(F)cc1 (single isomer, unassigned; (+)) [Example 11, (+)-4,4-difluoro-2-(4-fluorophenyl)-N-{4-[3-(pyridin-2-yl)-1H-pyrrolo[3,2-b]pyridin-2-yl]pyridin-2-yl}butanamide] | 0.00257 µM | 0.00535 µM
7 | O=C(Nc1cc(-c2[nH]c3cncnc3c2-c2ccccn2)ccn1)C(CC(F)F)c1ccc(F)cc1 (single isomer, unassigned; (+)) [Example 15, (+)-4,4-difluoro-2-(4-fluorophenyl)-N-{4-[7-(pyridin-2-yl)-5H-pyrrolo[3,2-d]pyrimidin-6-yl]pyridin-2-yl}butanamide] | 0.00306 µM | 0.0309 µM
8 | O=C(Nc1cc(-c2[nH]c3cc(F)cnc3c2-c2ccccn2)ccn1)C(CC(F)F)c1ccc(F)cc1 (single isomer, unassigned; (+)) [Example 17, (+)-4,4-difluoro-2-(4-fluorophenyl)-N-{4-[6-fluoro-3-(pyridin-2-yl)-1H-pyrrolo[3,2-b]pyridin-2-yl]pyridin-2-yl}butanamide] | 0.00316 µM | 0.00548 µM
9 | O=C(Nc1cc(-c2[nH]c3cc(F)cnc3c2-c2ccccc2)ccn1)C(CC(F)F)c1ccc(F)cc1 (single isomer, unassigned; (+)) [Example 21, (+)-4,4-difluoro-2-(4-fluorophenyl)-N-[4-(6-fluoro-3-phenyl-1H-pyrrolo[3,2-b]pyridin-2-yl)pyridin-2-yl]butanamide] | 0.00359 µM | 0.229 µM
10 | O=C(Nc1cc(-c2[nH]c3cccnc3c2-c2ccccc2)ccn1)C(CC(F)F)c1ccc(F)cc1 (single isomer, unassigned; (+)) [Example 24, (+)-4,4-difluoro-2-(4-fluorophenyl)-N-[4-(3-phenyl-1H-pyrrolo[3,2-b]pyridin-2-yl)pyridin-2-yl]butanamide] | 0.00248 µM | 0.0666 µM
11 | O=C(Nc1cc(-c2[nH]c3cccnc3c2-c2cccc(F)n2)ccn1)C(CC(F)F)c1ccc(F)cc1 (single isomer, unassigned; (+)) [Example 27, (+)-4,4-difluoro-2-(4-fluorophenyl)-N-{4-[3-(6-fluoropyridin-2-yl)-1H-pyrrolo[3,2-b]pyridin-2-yl]pyridin-2-yl}butanamide] | 0.00405 µM | 0.00155 µM
12 | COc1cc(F)nc2c(-c3ccccn3)c(-c3ccnc(NC(=O)C(CC(F)F)c4ccc(F)cc4)c3)[nH]c12 (single isomer, unassigned; (+)) [Example 40, (+)-4,4-difluoro-N-{4-[5-fluoro-7-methoxy-3-(pyridin-2-yl)-1H-pyrrolo[3,2-b]pyridin-2-yl]pyridin-2-yl}-2-(4-fluorophenyl)butanamide] | 0.00557 µM | 0.00369 µM
13 | O=C(Nc1cc(-c2[nH]c3ccc(F)nc3c2-c2ccc(F)cn2)ccn1)C(CC(F)F)c1ccc(F)cc1 (single isomer, unassigned; (+)) [Example 109, (+)-4,4-difluoro-N-{4-[5-fluoro-3-(5-fluoropyridin-2-yl)-1H-pyrrolo[3,2-b]pyridin-2-yl]pyridin-2-yl}-2-(4-fluorophenyl)butanamide] | 0.00341 µM | 0.00314 µM
14 | O=C(Nc1cc(-c2[nH]c3cccnc3c2-c2ccccn2)ccn1)C(CC(F)F)c1ccc(F)cc1 (single isomer, unassigned; (-)) [Example 12, (−)-4,4-difluoro-2-(4-fluorophenyl)-N-{4-[3-(pyridin-2-yl)-1H-pyrrolo[3,2-b]pyridin-2-yl]pyridin-2-yl}butanamide] | 0.0124 µM | 0.856 µM
15 | O=C(Nc1cc(-c2[nH]c3cncnc3c2-c2ccccn2)ccn1)C(CC(F)F)c1ccc(F)cc1 (single isomer, unassigned; (-)) [Example 14, (−)-4,4-difluoro-2-(4-fluorophenyl)-N-{4-[7-(pyridin-2-yl)-5H-pyrrolo[3,2-d]pyrimidin-6-yl]pyridin-2-yl}butanamide] | 0.0285 µM | 2.14 µM
16 | O=C(Nc1cc(-c2[nH]c3cc(F)cnc3c2-c2ccccn2)ccn1)C(CC(F)F)c1ccc(F)cc1 (single isomer, unassigned; (-)) [Example 18, (−)-4,4-difluoro-2-(4-fluorophenyl)-N-{4-[6-fluoro-3-(pyridin-2-yl)-1H-pyrrolo[3,2-b]pyridin-2-yl]pyridin-2-yl}butanamide] | 0.0254 µM | 0.542 µM
17 | O=C(Nc1cc(-c2[nH]c3cc(F)cnc3c2-c2ccccc2)ccn1)C(CC(F)F)c1ccc(F)cc1 (single isomer, unassigned; (-)) [Example 20, (−)-4,4-difluoro-2-(4-fluorophenyl)-N-[4-(6-fluoro-3-phenyl-1H-pyrrolo[3,2-b]pyridin-2-yl)pyridin-2-yl]butanamide] | 0.0478 µM | 10.1 µM
18 | O=C(Nc1cc(-c2[nH]c3cccnc3c2-c2ccccc2)ccn1)C(CC(F)F)c1ccc(F)cc1 (single isomer, unassigned; (-)) [Example 23, (−)-4,4-difluoro-2-(4-fluorophenyl)-N-[4-(3-phenyl-1H-pyrrolo[3,2-b]pyridin-2-yl)pyridin-2-yl]butanamide] | 0.0125 µM | 3.74 µM
